Source: paper PMC5973995 (Clinical Pharmacokinetics, 2017)
Read-outs that look alike come from different tables or passages of the source.

What was measured:
5-HT1D receptor = settings: in vitro; cited from earlier work
plasma protein = settings: healthy volunteers and hepatic or renal impairment; cited from earlier work
CYP2D6 = CYP2D6 (Homo sapiens, UniProt P10635); assay: In-vitro CYP inhibition in pooled human liver microsomes; type: in vitro ADME; settings: data on file
[1] = cited from earlier work
CYP1A2 = target: T1, CYP1A2 (Homo sapiens, UniProt P05177); assay: In-vitro CYP inhibition in pooled human liver microsomes; type: in vitro ADME; settings: data on file
T1 sequence (P05177 1-516): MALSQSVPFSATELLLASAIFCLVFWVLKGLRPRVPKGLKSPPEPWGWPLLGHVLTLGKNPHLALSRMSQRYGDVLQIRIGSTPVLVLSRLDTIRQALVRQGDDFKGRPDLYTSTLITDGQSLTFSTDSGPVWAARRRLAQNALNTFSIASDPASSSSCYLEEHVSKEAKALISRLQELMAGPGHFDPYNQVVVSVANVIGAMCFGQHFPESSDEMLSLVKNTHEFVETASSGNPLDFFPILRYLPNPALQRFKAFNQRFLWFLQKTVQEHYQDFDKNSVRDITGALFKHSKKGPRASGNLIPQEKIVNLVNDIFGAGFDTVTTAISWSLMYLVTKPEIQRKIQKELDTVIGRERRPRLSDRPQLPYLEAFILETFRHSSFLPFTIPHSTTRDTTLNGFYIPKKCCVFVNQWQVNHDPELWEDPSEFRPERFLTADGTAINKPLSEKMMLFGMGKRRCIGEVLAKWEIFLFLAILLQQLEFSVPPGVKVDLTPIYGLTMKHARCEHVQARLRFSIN

[2] = cited from earlier work; remark: listed apart in the source
[3] = once-daily 10 mg; 21 young individuals; cited from earlier work
CYP2A6 = target: T2, CYP2A6 (Homo sapiens, UniProt P11509); assay: In-vitro CYP inhibition in pooled human liver microsomes; type: in vitro ADME; settings: data on file
T2 sequence (P11509 1-494): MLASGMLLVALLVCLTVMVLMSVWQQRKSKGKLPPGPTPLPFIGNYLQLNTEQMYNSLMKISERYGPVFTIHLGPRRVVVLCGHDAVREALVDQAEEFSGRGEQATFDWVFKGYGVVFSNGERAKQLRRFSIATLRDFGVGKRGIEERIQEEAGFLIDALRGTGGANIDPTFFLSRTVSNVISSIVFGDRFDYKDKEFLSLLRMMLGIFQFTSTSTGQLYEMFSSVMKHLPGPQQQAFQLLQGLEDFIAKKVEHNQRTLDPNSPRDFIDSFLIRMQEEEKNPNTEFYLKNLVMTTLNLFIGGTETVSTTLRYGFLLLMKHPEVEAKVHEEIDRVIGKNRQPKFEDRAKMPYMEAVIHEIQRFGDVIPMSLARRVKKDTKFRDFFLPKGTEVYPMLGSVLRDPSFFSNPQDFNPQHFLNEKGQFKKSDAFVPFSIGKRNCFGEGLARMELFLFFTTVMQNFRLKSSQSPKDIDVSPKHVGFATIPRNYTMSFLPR

[4] = cited from earlier work; remark: listed apart in the source
[5] = once-daily dosing; cited from earlier work
[6] = type: in vivo, human; settings: for AUC(0-t) / Tmax / Vd/F / half-life: both, human, plasma, oral; for AI (accumulation index = AUC(0–tau) at steady state/AUC(0–24) day 1) / CL/F / C max: healthy subjects, mean (% CV); for C max: steady state
CYP2E1 = CYP2E1 (Homo sapiens, UniProt P05181); assay: In-vitro CYP inhibition in pooled human liver microsomes; type: in vitro ADME; settings: data on file
Sequence of CYP2E1 (P05181 whole entry): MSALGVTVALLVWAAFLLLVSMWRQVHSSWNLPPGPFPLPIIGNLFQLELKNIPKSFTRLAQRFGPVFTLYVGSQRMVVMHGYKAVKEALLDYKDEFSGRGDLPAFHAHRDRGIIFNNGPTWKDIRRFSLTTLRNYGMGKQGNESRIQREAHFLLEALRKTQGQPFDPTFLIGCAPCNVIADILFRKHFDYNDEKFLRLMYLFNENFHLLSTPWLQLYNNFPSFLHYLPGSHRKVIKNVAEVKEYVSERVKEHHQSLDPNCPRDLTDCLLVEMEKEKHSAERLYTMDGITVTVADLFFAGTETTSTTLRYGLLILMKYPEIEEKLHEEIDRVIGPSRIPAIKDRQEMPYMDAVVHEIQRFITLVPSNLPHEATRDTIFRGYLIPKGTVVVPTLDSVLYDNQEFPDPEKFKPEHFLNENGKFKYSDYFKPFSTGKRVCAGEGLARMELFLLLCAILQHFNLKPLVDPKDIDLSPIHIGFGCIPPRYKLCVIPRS

5-HT1A receptor = settings: in vitro; cited from earlier work
5-HT transporter (SERT) = settings: in vitro; cited from earlier work
[7] = 10 or 40 mg once daily; ICH E14 definitions; cited from earlier work
[8] = Effect of sex, age and race/ethnicity on pharmacokinetics; type: in vivo, human
[9] = Mass balance, single oral dose of 50 mg 14C-labeled vortioxetine; type: in vivo, human; settings: single oral dose 50 mg 14C-labeled; data on file
Distribution coefficient = type: physicochemical; settings: data on file
[10] = cited from earlier work; remark: listed apart in the source
[11] = simulation, 20 mg at steady state
[12] = bupropion 150 mg twice daily with vortioxetine 10 mg once daily
[13] = fluconazole 200 mg once daily with vortioxetine 10 mg
[14] = ketoconazole 400 mg once daily with vortioxetine 10 mg
[15] = rifampin 600 mg daily with vortioxetine 20 mg
[16] = multiple doses of 2.5, 5, and 20 mg, male, data on file

Sequence of CYP2D6 (P10635 whole entry): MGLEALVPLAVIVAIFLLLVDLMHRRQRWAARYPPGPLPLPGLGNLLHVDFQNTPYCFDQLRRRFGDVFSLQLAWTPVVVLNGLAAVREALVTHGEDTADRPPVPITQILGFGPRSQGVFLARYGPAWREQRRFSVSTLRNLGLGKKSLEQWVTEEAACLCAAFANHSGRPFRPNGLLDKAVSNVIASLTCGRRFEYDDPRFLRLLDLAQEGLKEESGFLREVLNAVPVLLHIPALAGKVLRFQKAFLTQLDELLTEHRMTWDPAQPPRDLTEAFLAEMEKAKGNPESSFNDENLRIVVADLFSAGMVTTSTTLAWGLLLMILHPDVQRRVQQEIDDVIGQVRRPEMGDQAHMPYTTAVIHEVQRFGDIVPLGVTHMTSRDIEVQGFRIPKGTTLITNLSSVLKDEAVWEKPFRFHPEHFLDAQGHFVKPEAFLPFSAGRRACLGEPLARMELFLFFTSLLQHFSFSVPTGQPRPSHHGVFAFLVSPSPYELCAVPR

Br.Cc1ccc(Sc2ccccc2N2CCNCC2)c(C)c1 [vortioxetine, 1-[2-(2,4-dimethyl-phenylsulfanyl)-phenyl]-piperazine, hydrobromide]
action at 5-HT1D receptor (5-HT1D receptor): antagonist
bound to plasma protein (plasma protein): Approximately 99%
unbound drug (plasma protein): 1%
inhibitory in-vitro effect on CYP2D6 (CYP2D6): no inhibitory in-vitro effect
arachidonic acid-, adenosine diphosphate-, or collagen-induced platelet aggregation ([1]; vortioxetine 10 mg added to aspirin 150 mg): did not change
International Normalized Ratio or prothrombin times between groups ([1]; vortioxetine 10 mg with stable warfarin doses (1–10 mg), day 14): no difference
inhibitory in-vitro effect on CYP1A2 (CYP1A2): no inhibitory in-vitro effect
estimated CL/F ([2]; CYP2D6 EMs): 34.1 L/h
estimated CL/F ([2]; CYP2D6 IMs): 26.6 L/h
estimated CL/F ([2]; CYP2D6 PMs): 18.1 L/h
estimated CL/F ([2]; CYP2D6 UMs): 52.9 L/h
oral clearance, CYP2C19 EMs relative to PMs [2]: 1.4 times
oral clearance, CYP2D6 EMs higher than PMs [2]: approximately two-fold
exposure in CYP2D6 PMs relative to CYP2D6 EMs ([2]; expected): twice as high
population mean AUC lower in CYP2D6 UMs than EMs ([2]; expected): 35.5%
estimated minimal lag time ([2]; oral): 0.781 h
mean oral clearance ([2]; phase I population-PK analysis): 33 L/h
AUC(0–24) higher, 75-year-old vs 40-year-old [2, 11]: 40%
AUC(0–24) lower, 18-year-old vs 40-year-old [2, 11]: 15%
C max higher, 75-year-old vs 40-year-old [2, 11]: 38%
C max lower, 18-year-old vs 40-year-old [2, 11]: 14%
C max and AUC(0–24) higher, 155 cm vs 175 cm person ([2]; simulation, 20 mg): 5%
C max and AUC(0–24) lower, 187 cm vs 175 cm person ([2]; simulation, 20 mg): 4%
impairment of driving, cognitive function, or psychomotor skills [3]: not to impair
inhibitory in-vitro effect on CYP2A6 (CYP2A6): no inhibitory in-vitro effect
AUC(0–24) increase of vortioxetine [4, 12]: 2.3 fold
C max increase of vortioxetine [4, 12]: 2.1 fold
AUC(0–t) and C max of vortioxetine with a Pgp inhibitor ([4]; co-administered with ketoconazole): marginally increased
effect on exposure to vortioxetine ([4]; co-administration of aspirin): no effect
effect on exposure to vortioxetine ([4]; co-administration of ethanol): no effect
effect on exposure to vortioxetine ([4]; co-administration of omeprazole): no effect
AUC(0–t) increase of vortioxetine [4, 13]: 46%
C max increase of vortioxetine [4, 13]: 15%
AUC(0–t) increase of vortioxetine [4, 14]: 30%
C max increase of vortioxetine [4, 14]: 26%
AUC(0–t) decrease of vortioxetine [4, 15]: 72%
C max decrease of vortioxetine [4, 15]: 51%
time to steady-state plasma concentrations [5]: ≤ 2 weeks
AUC(0-t) ([6]; 5 mg): 175 ng·h/mL
Tmax ([6]; 5 mg): 7 h
Vd/F ([6]; 5 mg): 2500 L
half-life ([6]; 5 mg): 60 h
AUC(0-t) ([6]; 10 mg): 344 ng·h/mL
Tmax ([6]; 10 mg): 8 h
Vd/F ([6]; 10 mg): 3290 L
half-life ([6]; 10 mg): 58.8 h
AUC(0-t) ([6]; 20 mg): 646 ng·h/mL
Tmax ([6]; 20 mg): 8 h
Vd/F ([6]; 20 mg): 3370 L
half-life ([6]; 20 mg): 64.2 h
AI (accumulation index = AUC(0–tau) at steady state/AUC(0–24) day 1) ([6]; multiple doses 5 mg): 5.17 (27)
CL/F ([6]; multiple doses 5 mg): 32.96 (33) L/h
C max ([6]; multiple doses 5 mg): 8.69 (42) ng/mL
AI (accumulation index = AUC(0–tau) at steady state/AUC(0–24) day 1) ([6]; multiple doses 10 mg): 4.87 (34)
CL/F ([6]; multiple doses 10 mg): 38.27 (60) L/h
C max ([6]; multiple doses 10 mg): 17.92 (44) ng/mL
AI (accumulation index = AUC(0–tau) at steady state/AUC(0–24) day 1) ([6]; multiple doses 20 mg): 5.68 (38)
CL/F ([6]; multiple doses 20 mg): 40.11 (47) L/h
C max ([6]; multiple doses 20 mg): 33.03 (38) ng/mL
accumulation index (AUC(0–24) ratio steady state / single dose) ([6]; multiple doses of 5–20 mg (Table 2)): 5–6
inhibitory in-vitro effect on CYP2E1 (CYP2E1): no inhibitory in-vitro effect
action at 5-HT1A receptor (5-HT1A receptor): agonist
action at 5-HT transporter (SERT) (5-HT transporter (SERT)): inhibitor
effect on cardiac repolarization [7]: unlikely to affect cardiac repolarization
AUC(0–24) higher in elderly than young subjects ([8]; multiple 10-mg doses (Fig. 2)): 27%
C max higher in elderly than young subjects ([8]; multiple 10-mg doses (Fig. 2)): 23%
AUC(0–24) higher in female than male subjects ([8]; multiple doses (Fig. 2)): 27%
C max higher in female than male subjects ([8]; multiple doses (Fig. 2)): 24%
AUC(0–24) higher in Japanese than white participants [8, 16]: 8%
C max higher in Japanese than white participants [8, 16]: 9%
red blood cell distribution [9]: negligible
distribution coefficient (octanol/water) (Distribution coefficient; pH 3, 25 °C): 2.2
distribution coefficient (octanol/water) (Distribution coefficient; pH 11, 25 °C): 4.7
hepatic clearance, contribution to CL/F [10]: 99%
renal clearance of parent drug, contribution to CL/F [10]: < 1%
